Experiment [1] has as its target T1, RORγt (Homo sapiens, UniProt P51449).
T1 construct: The plasmid of pFN26A-RORγt-LBD and pG14.35 (Promega, Cat. No. E1370) were co-transfected into HEK 293 cells; expressed in transfected cells; host or cells: HEK 293 cells (Cat. No. GNHu18)
T1 sequence (P51449 269-508 limits assumed): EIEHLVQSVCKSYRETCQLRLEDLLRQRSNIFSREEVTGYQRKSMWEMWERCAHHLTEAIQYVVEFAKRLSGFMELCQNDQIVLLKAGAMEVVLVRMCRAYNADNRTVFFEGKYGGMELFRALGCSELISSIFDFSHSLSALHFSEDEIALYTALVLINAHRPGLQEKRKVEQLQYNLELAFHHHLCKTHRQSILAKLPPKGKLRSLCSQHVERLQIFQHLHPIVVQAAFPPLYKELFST
Kind of experiment: RORγt cellular reporter gene detection assay.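 As to Cellular Reporter Assay Amax: Ursolic Acid added as 5 µL of 20 µM medium per well.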 The conditions noted are these: 24 hrs; for pEC50: HEK 293 cells co-transfected with pFN26A-RORγt-LBD and pG14.35, in presence of antagonist Ursolic acid, top concentration 50 μM; for Cellular Reporter Assay Amax: upper activation limit, HEK 293 cells, in presence of antagonist Ursolic acid. The class given is cell-based. The procedure, abridged: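 Compounds, titrated 4-fold from a 50 μM top concentration, were added with Ursolic acid to HEK293 cells carrying a RORγt-LBD plasmid and a reporter plasmid. After 24 h at 37° C, dual firefly/Renilla luciferase readout; four-parameter curves gave EC50 and maximal activation (Amax).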
(In general: Reporter assays use an easily measured gene product as a stand-in for the process of interest.)

For experiment [2], the target named is T2, RORγt-LBD (Homo sapiens, UniProt P51449).
T2 sequence (P51449 269-508 limits assumed): T1 sequence (P51449 269-508 limits assumed)
Description: Time-resolved fluorescence resonance energy-transfer assay (TR-FRET), co-activator peptide recruitment. The class given is biochemical. Also on record: TR-FRET Biochemical Amax: unit not given here. Conditions: for pEC50: His-RORγt-LBD 30 nM, SRC peptide 500 nM, agonistic activity, averages of one or more measurements, read-out: TR-FRET Biochemical EC50/; for TR-FRET Biochemical Amax: upper activation limit, His-RORγt-LBD, SRC peptide. The method in brief:
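This agonist-mode TR-FRET used 30 nM His-tagged RORγt-LBD, 500 nM biotinylated SRC peptide, 0.25 nM Eu-anti-His and 5 nM APC-streptavidin in pH 7.0 Tris/KCl buffer with DTT and Triton. A 7-concentration, 5-fold compound series was incubated at 4 °C overnight plus 1 h at room temperature, and the 665/615 nm signal was read.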
A general note: TR-FRET usually uses a lanthanide donor and a delayed reading to cut background.

pEC50: −log10 of the molar value. Where only a bound is given, the exact number is not on record here.

Consider `NC(=O)N1CCN2c3ccc(/C=C/c4c(Cl)cccc4C(F)(F)F)cc3N(S(=O)(=O)c3cccc(C(F)(F)F)c3)C[C@@H]2C1` [Example 60, (S,E)-8-(2-chloro-6-(trifluoromethyl)styryl)-6-((3-(trifluoromethyl)phenyl)sulfonyl)-1,2,4,4a,5,6-hexahydro-3H-pyrazino[1,2-a]quinoxalin-3-carboxamide], for which, in experiment [1], the pEC50 was 6.60 and the “Cellular Reporter Assay Amax” value is on record as 2.8. In addition, in experiment [2], the pEC50 is 7.21 and the “TR-FRET Biochemical Amax” value was determined as 0.98.

`CC(C)OC(=O)CN1CCN2c3ccc(/C=C/c4c(Cl)cccc4C(F)(F)F)cc3N(S(=O)(=O)c3cccc(C(F)(F)F)c3)C[C@@H]2C1` [Example 47, isopropyl (S,E)-2-(8-(2-chloro-6-(trifluoromethyl)styryl)-6-((3-(trifluoromethyl)phenyl)sulfonyl)-1,2,4,4a,5,6-hexahydro-3H-pyrazino[1,2-a]quinoxalin-3-yl) acetate]: in experiment [1], the pEC50 is 6.12 and the “Cellular Reporter Assay Amax” value was 2.1. Besides, in experiment [2], the pEC50 was 8.45 and the “TR-FRET Biochemical Amax” value was 0.77.

For the molecule `O=C(O)CN1CCN2c3ccc(/C=C/c4c(Cl)cccc4C(F)(F)F)cc3N(S(=O)(=O)c3cccc(C(F)(F)F)c3)C[C@H]2C1` [Example 83, (R,E)-2-(8-(2-chloro-6-(trifluoromethyl)styryl)-6-((3-(trifluoromethyl)phenyl)sulfonyl)-1,2,4,4a,5,6-hexahydro-3H-pyrazino[1,2-a]quinoxalin-3-yl)acetic acid], in experiment [1], the pEC50 is 6.01 and the “Cellular Reporter Assay Amax” value is recorded as 7.0. Also, in experiment [2], the pEC50 was 7.54 and the “TR-FRET Biochemical Amax” value is 0.98.

Turning to `COC(=O)CN1CCN2c3ccc(-c4cc(F)cc(OC(F)F)c4)cc3N(S(=O)(=O)c3cc(C(F)(F)F)cnc3OCCO)C[C@@H]2C1` [Example 90, methyl (S)-2-(8-(3-(difluoromethoxy)-5-fluorophenyl)-6-((2-(2-hydroxyethoxy)-5-(trifluoromethyl)pyridin-3-yl)sulfonyl)-1,2,4,4a,5,6-hexahydro-3H-pyrazino[1,2-a]quinoxalin-3-yl)acetate], in experiment [1], the pEC50 was 6.43 and the “Cellular Reporter Assay Amax” value is listed as 1.8. Further, in experiment [2], the pEC50 was 7.69 and the “TR-FRET Biochemical Amax” value came out at 0.86.

With `O=S(=O)(c1cccc(C(F)(F)F)c1)N1C[C@@H]2CNCCN2c2ccc(/C=C/c3c(Cl)cccc3C(F)(F)F)cc21` [Example 11, (S,E)-8-(2-chloro-6-(tri-fluoromethyl)styryl)-6-((3-(trifluoromethyl)phenyl)sulfonyl)-2,3,4,4a,5,6-hexa-hydro-1H-pyrazino[1,2-a]quinoxaline], in experiment [1], the pEC50 was 6.37 and the “Cellular Reporter Assay Amax” value is on record as 3.2. In experiment [2], the pEC50 was 7.66 and the “TR-FRET Biochemical Amax” value is 0.82.

On to `CCOC(=O)CN1CCN2c3ccc(/C=C(\C)c4c(F)cccc4Cl)cc3N(S(=O)(=O)c3cccc(C(F)(F)F)c3)C[C@@H]2C1` [Example 43, ethyl (S,E)-2-(8-(2-(2-chloro-6-fluorophenyl)prop-1-en-1-yl)-6-((3-(trifluoromethyl)phenyl)sulfonyl)-1,2,4,4a,5,6-hexahydro-3H-pyrazino[1,2-a]quinoxalin-3-yl)acetate], for which, in experiment [1], the pEC50 is 6.79 and the “Cellular Reporter Assay Amax” value turned out to be 3.0. In addition, in experiment [2], the pEC50 is 7.76 and the “TR-FRET Biochemical Amax” value stood at 0.87.

In the case of `O=S(=O)(c1cc(C(F)(F)F)cnc1OCCO)N1C[C@@H]2CNCCN2c2ccc(-c3cc(F)cc(OC(F)F)c3)cc21` [Example 87, (S)-2-((3-((8-(3-(difluoromethoxy)-5-fluorophenyl)-1,2,3,4,4a,5-hexahydro-6H-pyrazino[1,2-a]quinoxalin-6-yl)sulfonyl)-5-(trifluoromethyl)pyridin-2-yl)oxy) ethan-1-ol], the pEC50 in experiment [1] was ≤ 4.30; in experiment [2], 6.42. For the same molecule, in experiment [2], the “TR-FRET Biochemical Amax” value is on record as 0.96.

In the case of `CC1(C)C=C(c2ccc3c(c2)N(S(=O)(=O)c2cccc(C(F)(F)F)c2)C[C@@H]2CN(CC(=O)O)CCN32)CC(C)(C)O1` [Example 22, (S)-2-(8-(2,2,6,6-tetramethyl-3,6-dihydro-2H-pyran-4-yl)-6-((3-(trifluoromethyl)phenyl)sulfonyl)-1,2,4,4a,5,6-hexa-hydro-3H-pyrazino[1,2-a]quinoxalin-3-yl)acetic acid], in experiment [1], the pEC50 was 6.61 and the “Cellular Reporter Assay Amax” value was 3.3. Also, in experiment [2], the pEC50 is 8.82 and the “TR-FRET Biochemical Amax” value stood at 0.62.

Consider `N#Cc1ccc(F)c(-c2ccc3c(c2)N(S(=O)(=O)c2cccc(C(F)(F)F)c2)C[C@@H]2CN(CC(=O)O)CCN32)c1` [Example 96, (S)-2-(8-(5-cyano-2-fluorophe-nyl)-6-((3-(trifluoromethyl)phe-nyl)sulfonyl)-1,2,4,4a,5,6-hexa-hydro-3H-pyrazino[1,2-a]quin-oxalin-3-yl)acetic acid], for which, in experiment [1], the pEC50 was 5.68 and the “Cellular Reporter Assay Amax” value is given as 1.2. Further, in experiment [2], the pEC50 is 7.50 and the “TR-FRET Biochemical Amax” value is reported as 0.43.

As for `O=S(=O)(c1cccc(C(F)(F)F)c1)N1C[C@@H]2CN(C[C@@H](O)CO)CCN2c2ccc(/C=C/c3c(Cl)cccc3C(F)(F)F)cc21` [Example 35, (R)-3-((S)-8-((E)-2-chloro-6-(trifluoromethyl)styryl)-6-((3-(trifluoromethyl)phenyl)sulfonyl)-1,2,4,4a,5,6-hexahydro-3H-pyrazino[1,2-a]quinoxalin-3-yl)propane-1,2-diol], in experiment [1], the pEC50 was 6.33 and the “Cellular Reporter Assay Amax” value was determined as 4.2. In addition, in experiment [2], the pEC50 is 7.62 and the “TR-FRET Biochemical Amax” value came to 1.15.

With `CC(C)OC(=O)OCOC(=O)CN1CCN2c3ccc(/C=C/c4c(Cl)cccc4C(F)(F)F)cc3N(S(=O)(=O)c3cccc(C(F)(F)F)c3)C[C@@H]2C1` [Example 50, ((isopropoxycarbonyl)oxy)methyl (S,E)-2-(8-(2-chloro-6-(trifluoromethyl)styryl)-6-((3-(trifluoromethyl)phenyl)sulfonyl)-1,2,4,4a,5,6-hexahydro-3H-pyrazino[1,2-a]quinoxalin-3-yl)acetate], in experiment [1], the pEC50 is 6.17 and the “Cellular Reporter Assay Amax” value is given as 6.3. Further, in experiment [2], the pEC50 was 8.09 and the “TR-FRET Biochemical Amax” value stood at 0.64.

With `COC(=O)CN1CCN2c3ccc(/C=C/c4c(Cl)cccc4C(F)(F)F)cc3N(S(=O)(=O)c3cccc(OC(F)(F)F)c3)C[C@@H]2C1` [Example 85, methyl (S,E)-2-(8-(2-chloro-6-(trifluoromethyl)styryl)-6-((3-(trifluoromethoxy)phenyl)sulfonyl)-1,2,4,4a,5,6-hexahydro-3H-pyrazino[1,2-a]quinoxalin-3-yl) acetate], in experiment [1], the pEC50 was 6.55 and the “Cellular Reporter Assay Amax” value amounted to 1.8. Besides, in experiment [2], the pEC50 was 7.12 and the “TR-FRET Biochemical Amax” value is on record as 1.01.

With `COC(=O)C(C)N1CCN2c3ccc(C4=CC(C)(C)OC(C)(C)C4)cc3N(S(=O)(=O)c3cccc(C(F)(F)F)c3)C[C@@H]2C1` (stereo partly drawn) [Example 24, methyl 2-((S)-8-(2,2,6,6-tetramethyl-3,6-dihydro-2H-pyran-4-yl)-6-((3-(trifluoro-methyl)phenyl)sulfonyl)-1,2,4,4a,5,6-hexahydro-3H-pyrazino[1,2-a]qui-noxalin-3-yl)propanoate], in experiment [1], the pEC50 is 7.31 and the “Cellular Reporter Assay Amax” value turned out to be 2.4. Besides, in experiment [2], the pEC50 is 7.50 and the “TR-FRET Biochemical Amax” value is 0.92.

On to `CCOC(=O)C(=O)N1CCN2c3ccc(/C=C(\C)c4c(F)cccc4Cl)cc3N(S(=O)(=O)c3cccc(C(F)(F)F)c3)C[C@@H]2C1` [Example 57, ethyl (S,E)-2-(8-(2-(2-chloro-6-fluorophenyl)prop-1-en-1-yl)-6-((3-(trifluoromethyl)phenyl)sulfonyl)-1,2,4,4a,5,6-hexahydro-3H-pyrazino[1,2-a]quinoxalin-3-yl)-2-oxoacetate], for which, in experiment [1], the pEC50 was 6.52 and the “Cellular Reporter Assay Amax” value is recorded as 3.2. In experiment [2], the pEC50 was 8.18 and the “TR-FRET Biochemical Amax” value is on record as 0.89.

Consider `O=S(=O)(c1cccc(C(F)(F)F)c1)N1C[C@@H]2CC(O)CCN2c2ccc(-c3cc(F)cc(OC(F)F)c3)cc21` (stereo partly drawn) [Example 105, (6aS)-3-(3-(difluoromethoxy)-5-fluorophenyl)-5-((3-(trifluoromethyl)phenyl)sulfonyl)-6,6a,7,8,9,10-hexahydro-5H-pyrido[1,2-a]quinoxalin-8-ol], for which, in experiment [1], the pEC50 was 6.02 and the “Cellular Reporter Assay Amax” value came out at 4.8. For the same molecule, in experiment [2], the pEC50 was 6.77 and the “TR-FRET Biochemical Amax” value amounted to 0.69.

The values are drawn from US20220009894A1, “1,2,3,4-TETRAHYDROQUINOXALINE DERIVATIVE, PREPARATION METHOD THEREFOR AND APPLICATION THEREOF” (Abbisko Therapeutics Co., Ltd., priority 2019, published 2022).
